Measured values as given in US20250304705A1, “BIOTIN ORTHOGONAL STREPTAVIDIN SYSTEM” (UNIVERSITY OF UTAH RESEARCH FOUNDATION, priority 2022, published 2025).

Assays:
D-SA = test: binding of D-biotin to D-SA, by mirror-image symmetry from L-biotin/L-SA ITC; conditions: orthogonality, inferred by mirror-image symmetry
Text: As detailed herein, mirror-image SA and biotin (D-SA/L-biotin) offer an elegant solution to circumvent the limitations encountered with L-SA/D-biotin systems. For example, D-proteins are inert to L-proteases and therefore cannot be digested for MHC presentation to the immune system. […] Therefore, it is proposed that D-SA/L-biotin can be used as a biotin orthogonal streptaviding system (BOSS). Without wishing to be bound by theory, it is hypothesized that the orthogonality of BOSS, along with D-SA's low immunogenicity, will overcome the limitations of natural SA/biotin.
First, a control isothermal titration calorimetry (ITC) experiment was performed. […] This titration data was fit using Origin software to calculate binding stoichiometry (N=0.97±0.003 sites) and enthalpy (ΔH=−27.72±0.18 kcal/mol), as shown in FIG. 2A.

[1] = molecular target: T1, L-SA (recombinant SA, Novus Biologicals) (Streptomyces avidinii, UniProt P22629); test: isothermal titration calorimetry (ITC), biotin enantiomer titrated into recombinant L-SA; assay type: binding; conditions: fit using Origin software
T1 construct: purchased Novus Biologicals
Procedure: First, a control isothermal titration calorimetry (ITC) experiment was performed.

T1 sequence (P22629 37-163): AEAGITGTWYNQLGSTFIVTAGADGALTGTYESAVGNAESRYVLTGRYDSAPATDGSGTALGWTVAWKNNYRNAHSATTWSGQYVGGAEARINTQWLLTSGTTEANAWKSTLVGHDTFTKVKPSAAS

Question: Which results are given for `O=C(O)CCCC[C@@H]1SC[C@@H]2NC(=O)N[C@@H]21` [D-biotin]?
Answer: binding to D-SA (D-SA): minimal binding; enthalpy (ΔH) [1]: -27.72 ± 0.18 kcal/mol
